Series [1] can be described thus: ThT fluorescence assay of fibril formation (physical stability). It is filed as physicochemical. On the procedure:
FIG. 1. ThT fluorescence assay of fibril formation in acylated GLP-1 samples. The samples contain 6 mg/ml acylated GLP-1, 5 μM ThT dissolved in water and adjusted to the stated pH. Experimental conditions are described in “Examples”. Briefly, the samples were incubated at 40° C. and shaken with 960 rpm in an Ascent Fluoroskan fluorescence plate reader. All data points are from the same experiment (i.e. all samples are from the same microtiterplate) and are means of eight replica and shown with standard deviations as error bars. Furthermore, these values at 20 and 40 hours are tabulated for each sample.
Low physical stability of a peptide may lead to amyloid fibril formation, which is observed as well-ordered, thread-like macromolecular structures in the sample eventually resulting in gel formation. This has traditionally been measured by visual inspection of the sample. However, that kind of measurement is very subjective and depending on the observer. Therefore, the application of a small molecule indicator probe is much more advantageous. Thioflavin T (ThT) is such a probe and has a distinct fluorescence signature when binding to fibrils [Naiki et al. (1989) Anal. Biochem. 177, 244-249; LeVine (1999) Methods. Enzymol. 309, 274-284].
The time course for fibril formation can be described by a sigmoidal curve with the following expression [Nielsen et al. (2001) Biochemistry 40, 6036-6046]:
Here, F is the ThT fluorescence at the time t (see FIG. 12). The constant t0 is the time needed to reach 50% of maximum fluorescence. The two important parameters describing fibril formation are the lag-time calculated by t0−2τ and the apparent rate constant kapp=1/τ.
Samples were prepared freshly before each assay. Usually, acylated GLP-1 was dissolved to 6 mg/ml in desired buffer or solvent. The pH of the sample was adjusted to the desired value using appropriate amounts of concentrated NaOH and HClO4. Thioflavin T was added to the samples from a 1 mM stock solution in H2O to a final concentration of 5 μM.
Sample aliquots of 100 μl were placed in a 96 well microtiter plate (Packard Opti-Plate™-96, white polystyrene). Usually, eight replica of each sample (corresponding to one test condition) was placed in one column of wells. The plate was sealed with Scotch Pad (Qiagen).
Incubation at given temperature, shaking and measurement of the ThT fluorescence emission were done in a Fluoroskan Ascent FL fluorescence platereader (Thermo Labsystems). Temperature setting is possible up till 45° C., but usually sat at 40° C. The orbital shaking is selectable up till 1200 rpm, but adjusted to 960 rpm with an amplitude of 1 mm in all the presented data. Fluorescence measurement was done using excitation through a 444 nm filter and measurement of emission through a 485 nm filter.
Each run was initiated by incubating the plate at the assay temperature for 10 min. The plate was measured each hour for typically 45 hours. Between each measurement, the plate was shaken and heated as adjusted.
The measurement points were saved in Microsoft Excel format for further processing and curve drawing and fitting was performed using GraphPad Prism. The background emission from ThT in the absence of fibrils was negligible. The data points are typically a mean of eight samples and shown with standard deviation error bars. Only data obtained in the same experiment (i.e. samples on the same plate) are presented in the same graph ensuring a relative measure of fibrillation between experiments.
The data set may be fitted to Eq. (1). However, since full sigmodial curves in this case are not usually achieved during the measurement time, the degree of fibrillation is expressed as ThT fluorescence at 20 and 40 hours, calculated as the mean of the eight samples and shown with the standard deviation.

Series [2] can be described thus: Proton NMR spectroscopy of solvent and buffer effects on structure and dynamics in solution. It is filed as physicochemical. On the procedure: FIG. 10. Proton NMR spectrum of acylated GLP-1 with different additives at pH 7.9. N-terminal histidine signals of the imidazol sidechain are observed at approx 7.80 ppm and 7.00 ppm. The linewidth and position reflects the reduced flexibility of the N-terminal. NMR samples were prepared with 6 mg/ml acylated GLP-1 at pH 7.9 dissolved in 90%/10% H2O/D2O. NMR spectra were recorded at 600 MHz using a Varian Inova 600 MHz NMR instrument using 5 mm samples tubes. Sample volumes were 800 ul and spectra were measured at 27 degrees Celsius
FIG. 11. Amide protons of glu-9 (8.65 ppm) and gly-10 (8.42 ppm) under the same conditions as in FIG. 10. More intense amide proton signals reflect that these protons are relatively better shielded structurally from exchange with the water.
Proton NMR spectroscopy of proteins in solutions has become a powerful technique to study structure and dynamics of a pure protein in solution (Wüthrich, K, “NMR of Proteins and Nucleic Acids”, (1986), ISBN 0-471-82893-9). Each proton (or proton group) in a protein will give rise to a resonance peak at a frequency which depends on the chemical and physical environment in the vicinity of each proton (or proton group) in the protein. A skilled artisan in the field of protein NMR spectroscopy will be able to assign most of the resonance peaks of a proton NMR spectrum of a protein to specific protons (or proton groups) in the protein given that the actual behavior of the protein in solution give rise to a well resolved proton NMR spectrum (well known to the skilled artisan in the field). The line width of the resonance peaks in the protein NMR spectrum reflects to some extend the size and dynamic properties of the protein in solution.
Aqueous solution of acylated GLP-1 at concentrations between 1 and 30 mg/ml, with or without buffers in the pH range 7.0 to 8.2 give rise to NMR spectra that to a high extend allow the afore mentioned resonance assignment. Thus several resonances of the NMR spectrum of this peptide can be assigned to specific atomic groups in the peptide. Recording NMR spectra of acylated GLP-1 under the conditions mentioned above but with different buffer substances in the solution allows a direct comparison of the structural and dynamical changes that acylated GLP-1 undergo as different buffers are applied.

On to “Arg^34, Lys^26(N^ε-(γ-Glu(N^α-hexadecanoyl)))-GLP-1(7-37) [acylated GLP-1]”, for which the fibril formation entry in series [1] (8 mM phosphate, pH8.15) was “fibril formation is already observed”. The fibrillation result in series [1] (10 mM BICINE buffer) is “without significantly increasing the fibrillation compared to water at pH7.89”; in series [1] (10 mM HEPES buffer) it was “without significantly increasing the fibrillation compared to water at pH7.89”; in series [1] (10 mM NaCl added to solution in water pH 7.9), “promotes fibrillation”; in series [1] (water adjusted to pH7.85, incubated 45 hours), “No significant fibrillation”; in series [1] (water adjusted to pH8.14, incubated 45 hours), “No significant fibrillation”. Also, the physical stability result is given as “as physically stable as in 8 mM phosphate pH8.15” in series [1] (10 mM HEPES pH7.73); “slightly more physically unstable” in series [1] (10 mM HEPES, pH gradually lowered from pH7.9 to pH7.51); “only marginally less stable” in series [1] (10 mM His, lowering the pH); “much more physically stable than acylated GLP-1 in non buffered aqueous solution pH7.5” in series [1] (10 mM His, pH 7.5); “same physical stability of acylated GLP-1 as obtained in water at pH7.9” in series [1] (10 mM His, pH7.9); “more physical stable than a solution in 8 mM phosphate at pH8.14” in series [1] (10 mM MOPS). Further, the physical stability entry is on record as “more physical stable than a solution in 8 mM phosphate at pH8.14” in series [1] (10 mM TES); “significantly more physically stable” in series [1] (aqueous solution non buffered or buffered with HEPES or BICINE, versus 8 mM phosphate pH7.92); “significant increase in physical stability” in series [1] (dissolved in water rather than phosphate buffer (8 mM), 6 mg/ml, 40° C., 960 rpm); “comparable with 8 mM phosphate pH7.88” in series [1] (water at pH7.53). Besides, the fibrillation lag-time entry in series [1] (lowering pH in the interval pH 8.2 to pH 7.5, all examples) was “shorter and shorter fibrillation lag-times”. For the same substance, in series [1] (phosphate lowered from 8 mM to 1 mM at pH7.9), the “tendency to fibril formation” value was “Less tendency to fibril formation”. In addition, the “amide proton resonances of glutamic acid residue 9 and glycine residue 10” value in series [2] (8 mM phosphate at pH 7.9 compared to non-buffered, 6 mg/ml) is “almost disappearance of amides protons resonances”. The “protection of amide protons of Glu 9 and Gly 10 from water” value in series [2] (aqueous solution without buffer substance versus 8 mM phosphate buffer) is given as “relatively more protected from the water molecules”. The self-assembly in solution result in series [2] (concentration range 1 to 30 mg/ml) was “bundle up in assemblies with several but well defined and limited number of acylated GLP-1 molecules”. Besides, the “order and rigidity of the N-terminal” value in series [2] (non buffered solution or buffered with HEPES, bicine or histidine, pH 7.9) is “more ordered and rigid”.

For the origin of these results see US20100190715A1, “Stable Formulations of Peptides” (Novo Nordisk A/S, priority 2003, published 2010).
